Organism: Rattus norvegicus
Assay: Open TG-GATES - Regimen: Single
Assay type: toxicity, organism-based, Sprague-Dawley
Design: regimen Single, gender Male, age 6 weeks
Conditions: in vivo, po, 1000 mg/kg, route gavage, dose level High; for APTT / Bas / Eos / Fbg / Hb / Ht / Lym / MCH / MCHC / MCV / Mono / Neu / PT / Plat / RBC / Ret / WBC: tissue Blood; for KIDNEY_L / KIDNEY_R / KIDNEY_TOTAL: tissue Kidney; for LIVER: tissue Liver; for A/G / ALP / ALT / AST / BUN / CRE / Ca / Cl / DBIL / GLC / IP / K / LDH / Na / PL / RALB / TBIL / TC / TG / TP / gamma-GTP: tissue Plasma

In the case of `COc1ccc(Cl)cc1C(=O)NCCc1ccc(S(=O)(=O)NC(=O)NC2CCCCC2)cc1` [GLYBURIDE], the TERMINAL_BW (3 h) is reported as 216.5 g, the APTT (3 h) is reported as 18.9 s and the Bas (3 h) is reported as 0%. For the same compound, the Eos (3 h) was 1%, the Fbg (3 h) was 226.2 mg/dL and the Hb (3 h) was 13.2 g/dL. The Ht (3 h) was 40.8%, the Lym (3 h) was 69.2% and the MCH (3 h) was 20.3 pg. It also gave an MCHC (3 h) of 32.5%, an MCV (3 h) of 62.6 fL and a Mono (3 h) of 4%. The Neu (3 h) was 25%, the PT (3 h) was 12.6 s and the Plat (3 h) was 118.1 x10_4/uL. For the same compound, the RBC (3 h) was 651.8 x10_4/ul, the Ret (3 h) was 7.9% and the WBC (3 h) was 75.5 x10_2/uL. For the same compound, the KIDNEY_L (3 h) was 0.9 g, the KIDNEY_R (3 h) was 1 g and the KIDNEY_TOTAL (3 h) was 1.9 g. For the same compound, the LIVER (3 h) was 9.5 g, the A/G (3 h) was 1.6 and the ALP (3 h) was 1086.8 IU/L. For the same compound, the ALT (3 h) was 43.2 IU/L, the AST (3 h) was 67.2 IU/L and the BUN (3 h) was 13.2 mg/dL. It also gave a CRE (3 h) of 0.3 mg/dL, a Ca (3 h) of 10.7 mg/dL and a Cl (3 h) of 104.4 meq/L. For the same compound, the DBIL (3 h) was 0.2 mg/dL, the GLC (3 h) was 125.4 mg/dL and the IP (3 h) was 7.8 mg/dL. For the same compound, the K (3 h) was 3.7 meq/L, the LDH (3 h) was 172.8 IU/L and the Na (3 h) was 141.8 meq/L. For the same compound, the PL (3 h) was 178.6 mg/dL, the RALB (3 h) was 3.4 g/dL and the TBIL (3 h) was 0.2 mg/dL. For the same compound, the TC (3 h) was 85.2 mg/dL, the TG (3 h) was 123 mg/dL and the TP (3 h) was 5.5 g/dL. For the same compound, the gamma-GTP (3 h) was 1.8 IU/L, the TERMINAL_BW (6 h) was 217.2 g and the APTT (6 h) was 19.4 s. It also gave a Bas (6 h) of 0%, an Eos (6 h) of 0.8% and a Fbg (6 h) of 240.8 mg/dL. It also gave a Hb (6 h) of 13.6 g/dL, a Ht (6 h) of 41.3% and a Lym (6 h) of 79.4%. The MCH (6 h) was 20.7 pg, the MCHC (6 h) was 32.9% and the MCV (6 h) was 62.9 fL. It also gave a Mono (6 h) of 2.8%, a Neu (6 h) of 16.2% and a PT (6 h) of 12.6 s. The Plat (6 h) was 128.9 x10_4/uL, the RBC (6 h) was 657 x10_4/ul and the Ret (6 h) was 8.2%. It also gave a WBC (6 h) of 91.7 x10_2/uL, a KIDNEY_L (6 h) of 1 g and a KIDNEY_R (6 h) of 1 g. For the same compound, the KIDNEY_TOTAL (6 h) was 1.9 g, the LIVER (6 h) was 9.7 g and the A/G (6 h) was 1.6. It also gave an ALP (6 h) of 948.2 IU/L, an ALT (6 h) of 38.4 IU/L and an AST (6 h) of 65.4 IU/L. For the same compound, the BUN (6 h) was 12.4 mg/dL, the CRE (6 h) was 0.4 mg/dL and the Ca (6 h) was 10.6 mg/dL. For the same compound, the Cl (6 h) was 104.2 meq/L, the DBIL (6 h) was 0.1 mg/dL and the GLC (6 h) was 155.8 mg/dL. For the same compound, the IP (6 h) was 8.7 mg/dL, the K (6 h) was 3.6 meq/L and the LDH (6 h) was 169.2 IU/L. The Na (6 h) was 141.8 meq/L, the PL (6 h) was 154 mg/dL and the RALB (6 h) was 3.5 g/dL. It also gave a TBIL (6 h) of 0.2 mg/dL, a TC (6 h) of 82.4 mg/dL and a TG (6 h) of 86.4 mg/dL. The TP (6 h) was 5.7 g/dL, the gamma-GTP (6 h) was 1.6 IU/L and the TERMINAL_BW (9 h) was 211.6 g. For the same compound, the APTT (9 h) was 18.9 s, the Bas (9 h) was 0% and the Eos (9 h) was 1%. The Fbg (9 h) was 228 mg/dL, the Hb (9 h) was 13.3 g/dL and the Ht (9 h) was 40.7%. It also gave a Lym (9 h) of 76%, an MCH (9 h) of 20.4 pg and an MCHC (9 h) of 32.6%. For the same compound, the MCV (9 h) was 62.5 fL, the Mono (9 h) was 2.8% and the Neu (9 h) was 19.6%. For the same compound, the PT (9 h) was 12.9 s, the Plat (9 h) was 115.6 x10_4/uL and the RBC (9 h) was 651.2 x10_4/ul. It also gave a Ret (9 h) of 7.8%, a WBC (9 h) of 83.2 x10_2/uL and a KIDNEY_L (9 h) of 0.9 g. The KIDNEY_R (9 h) was 0.9 g, the KIDNEY_TOTAL (9 h) was 1.8 g and the LIVER (9 h) was 8.7 g. The A/G (9 h) was 1.7, the ALP (9 h) was 1050.6 IU/L and the ALT (9 h) was 35.4 IU/L. The AST (9 h) was 65.2 IU/L, the BUN (9 h) was 12.8 mg/dL and the CRE (9 h) was 0.4 mg/dL. It also gave a Ca (9 h) of 10.7 mg/dL, a Cl (9 h) of 103.8 meq/L and a DBIL (9 h) of 0.1 mg/dL. It also gave a GLC (9 h) of 139 mg/dL, an IP (9 h) of 9.5 mg/dL and a K (9 h) of 3.5 meq/L. The LDH (9 h) was 168.2 IU/L, the Na (9 h) was 142.2 meq/L and the PL (9 h) was 141 mg/dL. It also gave an RALB (9 h) of 3.5 g/dL, a TBIL (9 h) of 0.2 mg/dL and a TC (9 h) of 70.8 mg/dL. It also gave a TG (9 h) of 64.2 mg/dL, a TP (9 h) of 5.7 g/dL and a gamma-GTP (9 h) of 0.6 IU/L. For the same compound, the TERMINAL_BW (24 h) was 226 g, the APTT (24 h) was 18.8 s and the Bas (24 h) was 0.2%. It also gave an Eos (24 h) of 1%, a Fbg (24 h) of 215.2 mg/dL and a Hb (24 h) of 13 g/dL. It also gave a Ht (24 h) of 38.3%, a Lym (24 h) of 77.2% and an MCH (24 h) of 21.6 pg. The MCHC (24 h) was 33.9%, the MCV (24 h) was 63.9 fL and the Mono (24 h) was 2.8%. For the same compound, the Neu (24 h) was 18.6%, the PT (24 h) was 12.8 s and the Plat (24 h) was 126.5 x10_4/uL. For the same compound, the RBC (24 h) was 600.8 x10_4/ul, the Ret (24 h) was 6.8% and the WBC (24 h) was 87.8 x10_2/uL. For the same compound, the KIDNEY_L (24 h) was 1 g, the KIDNEY_R (24 h) was 1 g and the KIDNEY_TOTAL (24 h) was 1.9 g. The LIVER (24 h) was 10.1 g, the A/G (24 h) was 1.7 and the ALP (24 h) was 923.4 IU/L. For the same compound, the ALT (24 h) was 35.6 IU/L, the AST (24 h) was 69.2 IU/L and the BUN (24 h) was 16.2 mg/dL. For the same compound, the CRE (24 h) was 0.3 mg/dL, the Ca (24 h) was 10.7 mg/dL and the Cl (24 h) was 103.4 meq/L. For the same compound, the DBIL (24 h) was 0.1 mg/dL, the GLC (24 h) was 195 mg/dL and the IP (24 h) was 7.7 mg/dL. For the same compound, the K (24 h) was 3.4 meq/L, the LDH (24 h) was 218.2 IU/L and the Na (24 h) was 142.6 meq/L. It also gave a PL (24 h) of 143.6 mg/dL, an RALB (24 h) of 3.5 g/dL and a TBIL (24 h) of 0.2 mg/dL. For the same compound, the TC (24 h) was 75.4 mg/dL, the TG (24 h) was 74 mg/dL and the TP (24 h) was 5.5 g/dL. For the same compound, the gamma-GTP (24 h) was 1.4 IU/L.

— ChEMBL document CHEMBL3885861, “Open TG-GATES”
